The values below come from patent publication US10441599B2, “Pharmaceutical composition containing Ginkgolide B and blood platelet prostaglandin cyclooxygenase inhibitor and method for preparation thereof and use thereof” (priority 2014, dated 2019).

Format in all cases: in vivo, Japanese large-ear white rabbits
Assay [1] deals with rabbit platelet factor 4 (PF-4). In words: Determination of PF-4 level in serum (ELISA) after PAF induction. Particulars: for PF-4 level: rabbits 5.0 mg/kg once daily 7 days, serum after PAF induction, x ± s, n = 8. The text has this:
(§1) 128 Japanese large-ear white rabbits with a weight of (2.0±0.2) kg, half male and half female, were provided by Chongqing Medical University Experimental Animal Center [animal certification number: XCXK (Yu) 20020001]. […] ELISA kit (FOCUS, lot number: 20130301). TYXN-96 multifunctional intelligent aggregometer (Shanghai General Technique Research Institute); Scanning electron microscope […]-800 Absorbance Reader (BioTek Instruments, Inc.). 128 Japanese large-ear white rabbits were randomly assigned to 16 groups, with 8 rabbits in each group: […] All groups were administered with a clinically used route and dosage for 7 days continuously. […] The plasma was rested at 4° C. for 4 hours, and 200 μL of serum was taken for detection. The specific operation is carried out according to the kit specification, and the result was read by the Absorbance Reader.
(In general: In an ELISA, binding on a coated surface is turned into a signal by an enzyme label.)

Assay [2] deals with rabbit platelet aggregation induced by PAF. Kind of assay: Platelet aggregation rate induced by PAF in platelet-rich plasma of dosed rabbits. As to conditions: for Platelet aggregation inhibition rate (%) / platelet aggregation rate, 1 min / platelet aggregation rate, 5 min / maximum platelet aggregation rate (MAX): rabbits 5.0 mg/kg once daily 7 days; for Platelet aggregation inhibition rate (%) / maximum platelet aggregation rate (MAX): PAF-induced; for Platelet aggregation inhibition rate (%): relative to saline group; for platelet aggregation rate, 1 min / platelet aggregation rate, 5 min / maximum platelet aggregation rate (MAX): PRP, x ± s, n = 8; for platelet aggregation rate, 1 min: 1 min after addition of 10 μL PAF; for platelet aggregation rate, 5 min: 5 min after addition of 10 μL PAF; for maximum platelet aggregation rate comparing with the saline group: under the induction of PAF, p<0.01, p<<0.05. The procedure: 128 Japanese large-ear white rabbits with a weight of (2.0±0.2) kg, half male and half female, were provided by Chongqing Medical University Experimental Animal Center [animal certification number: XCXK (Yu) 20020001].
Platelet activation factors (PAF) (cayman, lot number: 011219) was dissolved in the Tris-NaCl solution containing 0.25% of calf serum albumin at a pH of 7.6, to a final concentration of 3.6 nmoL/L; sodium citrate (Beijing Zhongshanjinqiao Biotechnology Company, lot number: 20130117) dissolved in the distilled water with 3.8% concentration; rabbit β-thromboglobulin (β-TG) ELISA kit (FOCUS, lot number: 20130224), rabbit platelet factor 4 (PF-4) (lot number: ELISA kit (FOCUS, lot number: 20130301). TYXN-96 multifunctional intelligent aggregometer (Shanghai General Technique Research Institute); Scanning electron microscope S-3000 N (Hitachi Limited); ELX-800 Absorbance Reader (BioTek Instruments, Inc.).
128 Japanese large-ear white rabbits were randomly assigned to 16 groups, with 8 rabbits in each group: (1) Saline group, (2) Ginkgolide B group, (3) Aspirin group, (4) Jinnaduo group, (5) Composition 1 group, (6) Composition 2 group, (7) Composition 3 group, (8) Composition 4 group, (9) Composition 5 group, (10) Composition 6 group, (11) Composition 7 group, (12) Composition 8 group, (13) Composition 9 group, (14) Composition 10 group, (15) Composition 11 group, (16) Composition 12 group. All groups were administered with a clinically used route and dosage for 7 days continuously.
After 7 days of administration, 10.5 ml of blood was taken from the heart of each animal, wherein 1.5 ml of plasma was used for taking serum and the rest 9 ml of plasma was subjected to 3.8% sodium citrate at 1:9 for anticoagulation, centrifuging for 10 minutes at 800 r/min, and taking the supernatant to obtain platelet-rich plasma (PRP).), wherein 100 μl of the PRP was taken for electron microscope examination, and the rest of the PRP was used for detecting of the platelet aggregation rate; the remaining portion was centrifuged for 15 min at a speed of 3000 r/min, and platelet-depleted plasma (PPP) was obtained. PPP was used to adjust the number of platelet in PRP, to be at 360×10^9/L. The platelet aggregation rate and maximum platelet aggregation rate was studied and recorded after 1 min, 5 min of addition of 10 μL of PAF.
The statistical analysis is carried out using SPSS 18.0 software, and the platelet aggregation rates, the percentage of types of platelet morphology and the concentration of PF-4 and β-TG were analyzed using two-sample t-test. P-values<0.05 were considered statistically significant.

Assay [3] deals with rabbit β-thromboglobulin (β-TG). In words: Determination of β-TG level in serum (ELISA) after PAF induction. Particulars: for level of β-TG compared with the saline group: p<0.01, p<0.05; for β-TG level: rabbits 5.0 mg/kg once daily 7 days, serum after PAF induction, x ± s, n = 8.
From the text: as §1

Assay [4] deals with platelets (morphology types after PAF). In words: Scanning electron microscopy study of platelet morphology after addition of PAF. As to conditions: for Types of morphology (%): Aggregated / Types of morphology (%): Circle / Types of morphology (%): Flat / Types of morphology (%): Tree like: rabbits 5.0 mg/kg once daily 7 days, PRP + PAF, SEM, 100 platelets, x ± s, n = 8; for Aggregated type platelets under scanning electron microscope: under induction of PAF, 2000-fold SEM. The procedure:
128 Japanese large-ear white rabbits with a weight of (2.0±0.2) kg, half male and half female, were provided by Chongqing Medical University Experimental Animal Center [animal certification number: XCXK (Yu) 20020001]. 128 Japanese large-ear white rabbits were randomly assigned to 16 groups, with 8 rabbits in each group: […] All groups were administered with a clinically used route and dosage for 7 days continuously. […] The types of platelet under the electron microscope includes: […] (3) Flat type has a dense core in the center and a wide transparent peripheral zone which has a smooth periphery or small bulges. (4) Aggregated-type is usually composed of several to dozens of platelets, with different sizes of the aggregates, wherein the platelets are mutually connected, some of the platelets are integrally fused into a whole, and the foot processes of the peripheral part are prominent.

The molecule `CC(=O)Oc1ccccc1C(=O)O` [Aspirin, acetylsalicylic acid] returned a PF-4 level in assay [1] of 1.489 ± 0.228 µg/mL. In assay [2], the “Platelet aggregation inhibition rate (%)” value was found to be 31.53%; the “platelet aggregation rate, 1 min” value was found to be 25.28 ± 5.06; the “platelet aggregation rate, 5 min” value is on record as 36.89 ± 5.53; the “maximum platelet aggregation rate (MAX)” value was 48.08 ± 5.87. For the same molecule, the “maximum platelet aggregation rate comparing with the saline group” value in assay [2] is reported as “significant difference”. Also, in assay [3], the “level of β-TG compared with the saline group” value is “didn't decrease significantly” and the β-TG level turned out to be 1.504 ± 0.244 µg/mL. In assay [4], the “Types of morphology (%): Aggregated” value is reported as 54.0 ± 14.3 %, the “Types of morphology (%): Circle” value was found to be 5.8 ± 2.6%, the “Types of morphology (%): Flat” value came out at 25.5 ± 8.4 % and the “Types of morphology (%): Tree like” value came to 14.7 ± 7.0 %. Also, the “Aggregated type platelets under scanning electron microscope” value in assay [4] is “increased number of Aggregated type platelets”.

With `CC1C(=O)OC2C(O)C34C5CC(C(C)(C)C)C36C(OC(=O)C6O)OC4(C(=O)O5)C12O` (stereo not drawn) [Ginkgolide B], in assay [1] (p<0.01, p<0.05), the “level of PF-4 compared with the saline group” value is recorded as “decreased significantly”. This molecule also displayed a PF-4 level in assay [1] of 1.264 ± 0.215 µg/mL. Besides, in assay [2], the “Platelet aggregation inhibition rate (%)” value was 44.66%; the “platelet aggregation rate, 1 min” value came to 21.36 ± 4.15; the “platelet aggregation rate, 5 min” value was found to be 33.54 ± 5.48; the “maximum platelet aggregation rate (MAX)” value came to 38.86 ± 4.74. Besides, the “maximum platelet aggregation rate comparing with the saline group” value in assay [2] is “significant difference”. In assay [3], the “level of β-TG compared with the saline group” value is “decreased significantly” and the β-TG level stood at 1.247 ± 0.184 µg/mL. For the same molecule, in assay [4], the “Types of morphology (%): Aggregated” value is given as 22.3 ± 9.6 %, the “Types of morphology (%): Circle” value was found to be 31.6 ± 6.4 %, the “Types of morphology (%): Flat” value is 46.1 ± 8.3 % and the “Types of morphology (%): Tree like” value is 15.8 ± 6.8 %. The “Aggregated type platelets under scanning electron microscope” value in assay [4] was “rarely seen”.
